In patent US20230203060A1 (GENFLEET THERAPEUTICS (SHANGHAI) INC., priority 2020, published 2023):

Assays:
Format in all cases: cell-based, human
[1] = test system: KRAS G12C mutant MIA PaCa-2 cells; assay: Cell proliferation inhibition experiment, 3D spheroid, CellTiter-Glo, MIA PaCa-2; details: Homo sapiens, MIA PaCa-2, 120 h, 3D cell model in 384-well spheroid plate, 5 days, CellTiter-Glo; read-out: MIA-PaCa2 IC50
How it was run: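 Luminescent ATP read-out (CellTiter-Glo) after 5-day compound treatment of spheroids formed overnight from 200 MIA PaCa-2 cells/well; compounds in 3.16-fold series, 0.1% DMSO final. IC50 derived by four-parameter fit of percent inhibition, normalized to DMSO control and medium blank.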

[2] = test system: A549 cells (KRAS G12S mutant); assay: Cell proliferation inhibition experiment, 3D spheroid, CellTiter-Glo, A549; details: Homo sapiens, A549, 120 h, A549 (KRAS G12S mutant) 3D spheroid, 5 days with compound, CellTiter-Glo; read-out: A549 IC50
How it was run: (§1)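 IC50 values come from four-parameter fits of proliferation inhibition, measured by CellTiter-Glo after 5-day compound exposure. Spheroids of H358 (800 cells) or A549 (400 cells) were formed overnight in 2% FBS medium; DMSO held at 0.1%, doses spaced 3.16-fold.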

[3] = test system: KRAS G12C mutant NCI-H358 cells; assay: Cell proliferation inhibition experiment, 3D spheroid, CellTiter-Glo, NCI-H358; details: Homo sapiens, NCI-H358, 120 h, NCI-H358 (KRAS G12C mutant) 3D spheroid, 5 days with compound, CellTiter-Glo; read-out: H358 IC50
How it was run: as §1

IC50 [1] [nM]	IC50 [2] [nM]	IC50 [3] [nM]	SMILES
16.2	9510	8.4	C=CC(=O)N1CCN2C(=O)c3c(N4CC[C@H](OC)C4(C)C)nc(-c4c(O)cccc4F)c(F)c3OC[C@H]2C1 (single isomer, unassigned) [Z327-2]
30	> 30000	26	C=CC(=O)N1CCN2C(=O)c3c(N4CCO[C@](C)(CO)C4)nc(-c4c(O)cccc4F)c(Cl)c3OC[C@H]2C1 (single isomer, unassigned) [Z333-1]
6	> 10000	3	C=CC(=O)N1CCN2C(=O)c3c(N4CC[C@H](N(C)C)C4(C)C)nc(-c4c(O)cccc4F)c(Cl)c3OC[C@H]2C1 (single isomer, unassigned) [Z360-2]
22	> 30000	7	C=CC(=O)N1CCN2C(=O)c3c(N4C[C@@H](O)CC4(C)C)nc(-c4c(F)ccc(F)c4O)c(F)c3OC[C@H]2C1 (single isomer, unassigned) [Z449-1]
15	19000	10	C=CC(=O)N1CCN2C(=O)c3c(Nc4c(C(C)C)ncnc4C(C)C)nc(-c4c(O)cccc4F)c(Cl)c3OC[C@H]2C1 [Z15, (6aR)-8-acryloyl-4-chloro-1-((4,6-diisopropylpyrimidin-5-yl)amino)-3-(2-fluoro-6-hydroxyphenyl)-6,6a,7,8,9,10-hexahydro-12H-pyrazino[2,1-c]pyrido[3,4-f][1,4]oxazepin-12-one]
8	9020	4	C=CC(=O)N1CCN2C(=O)c3c(N(C)c4c(C(C)C)ncnc4C(C)C)nc(-c4c(O)cccc4F)c(Cl)c3OC[C@H]2C1 [Z20, (6aR)-8-acryloyl-4-chloro-1-((4,6-diisopropylpyrimidin-5-yl)(methyl)amino)-3-(2-fluoro-6-hydroxyphenyl)-6,6a,7,8,9,10-hexahydro-12H-pyrazino[2,1-c]pyrido[3,4-f][1,4]oxazepin-12-one]
65	> 20000	29	C=CC(=O)N1CCN2C(=O)c3c(N4CCC(C)(C)C4)nc(-c4c(O)cccc4F)c(Cl)c3OC[C@H]2C1 [Z21, (6aR)-8-acryloyl-4-chloro-1-(3,3-dimethylpyrrolidin-1-yl)-3-(2-fluoro-6-hydroxyphenyl)-6,6a,7,8,9,10-hexahydro-12H-pyrazino[2,1-c]pyrido[3,4-f][1,4]oxazepin-12-one]
7	> 30000	2	C=CC(=O)N1CCN2C(=O)c3c(N4CCCC4(C)C)nc(-c4c(O)cccc4F)c(Cl)c3OC[C@H]2C1 [Z22, (6aR)-8-acryloyl-4-chloro-1-(2,2-dimethylpyrrolidin-1-yl)-3-(2-fluoro-6-hydroxyphenyl)-6,6a,7,8,9,10-hexahydro-12H-pyrazino[2,1-c]pyrido[3,4-f][1,4]oxazepin-12-one]
37.4	> 10000	18	C=CC(=O)N1CCN2C(=O)c3c(N4CCN(C)C5(CC5)C4)nc(-c4c(O)cccc4F)c(Cl)c3OC[C@H]2C1 [Z83, (6aR)-8-acryloyl-4-chloro-3-(2-fluoro-6-hydroxyphenyl)-1-(4-methyl-4,7-diazaspiro[2 .5]octan-7-yl)-6,6a,7,8,9,10-hexahydro-12H-pyrazino[2,1-c]pyrido[3,4-f][1,4]oxazepin-12 (6aH)-one]
7.7	5530	6	C=CC(=O)N1CCN2C(=O)c3c(N4C[C@@H](N(C)C)C[C@@H]4C)nc(-c4c(O)cccc4F)c(Cl)c3OC[C@H]2C1 [Z237-2, (6aR)-8-acryloyl-4-chloro-1-((2S,4S)-4-(dimethylamino)-2-methylpyrrolidin-1-yl)-3-(2-fluoro-6-hydroxyphenyl)-6,6a,7,8,9,10-hexahydro-12H-pyrazino[2,1-c]pyrido[3,4-f][1,4]oxazepin-12-one]
3.6	> 30000	2.4	C=CC(=O)N1CCN2C(=O)c3c(N4C[C@@H](OC)C[C@@H]4C)nc(-c4c(O)cccc4F)c(Cl)c3OC[C@H]2C1 [Z260a, (6aR)-8-acryloyl-4-chloro-3-(2-fluoro-6-hydroxyphenyl)-1-((2S,4S)-4-methoxy-2-methylpyrrolidin-1-yl)-6,6a,7,8,9,10-hexahydro-12H-pyrazino[2,1-c]pyrido[3,4-f][1,4]oxazepin-12-one]

More lines, now with the values behind:

SMILES	IC50 [1] [nM]	IC50 [2] [nM]	IC50 [3] [nM]
C=CC(=O)N1CCN2C(=O)c3c(N4CCN(C)[C@H](C)[C@@H]4C)nc(-c4c(O)cccc4F)c(Cl)c3OC[C@H]2C1 (single isomer, unassigned) [Z308a-1]	7.8	14400	7.1
C=CC(=O)N1CCN2C(=O)c3c(N4C[C@@H](N(C)C)CC4(C)C)nc(-c4c(O)cccc4F)c(Cl)c3OC[C@H]2C1 (single isomer, unassigned) [Z324-1]	2.4	2850	1.3
C=CC(=O)N1CCN2C(=O)c3c(N4C[C@H](N(C)C)CC4(C)C)nc(-c4c(O)cccc4F)c(Cl)c3OC[C@H]2C1 (single isomer, unassigned) [Z324-2]	6.1	4650	4.4
C=CC(=O)N1CCN2C(=O)c3c(N4C[C@H](O)CC4(C)C)nc(-c4ccccc4F)c(Cl)c3OC[C@H]2C1 (single isomer, unassigned) [Z325-2]	15.5	> 30000	6.1
C=CC(=O)N1CCN2C(=O)c3c(N4CC[C@@H](OC)C4(C)C)nc(-c4c(O)cccc4F)c(F)c3OC[C@H]2C1 (single isomer, unassigned) [Z327-1]	7.1	7930	4
C=CC(=O)N1CCN2C(=O)c3c(N4C[C@@H](O)CC4(C)C)nc(-c4c(O)ccc(Cl)c4F)c(F)c3OC[C@H]2C1 (single isomer, unassigned) [Z340-1]	11	5510	5.2
C=CC(=O)N1CCN2C(=O)c3c(N4C[C@H](O)CC4(C)C)nc(-c4c(O)ccc(Cl)c4F)c(F)c3OC[C@H]2C1 (single isomer, unassigned) [Z340-2]	74	3170	26.7
C=CC(=O)N1CCN2C(=O)c3c(N4C[C@@H](O)CC4(C)C)nc(-c4c(F)ccc(Cl)c4O)c(F)c3OC[C@H]2C1 (single isomer, unassigned) [Z341-1]	24	11100	8
C=CC(=O)N1CCN2C(=O)c3c(N4Cc5nn(C)cc5[C@@H]4C)nc(-c4c(O)cccc4F)c(Cl)c3OC[C@H]2C1 (single isomer, unassigned) [Z345-2]	17	9400	11.8
C=CC(=O)N1CCN2C(=O)c3c(N4CC[C@@H](N(C)C)C4(C)C)nc(-c4c(O)cccc4F)c(Cl)c3OC[C@H]2C1 (single isomer, unassigned) [Z360-1]	19.6	2530	11.8
C=CC(=O)N1CCN2C(=O)c3c(N4CCC(OC)C4(C)C)nc(-c4c(O)cccc4F)c(Cl)c3OC[C@H]2C1 (stereo partly drawn) [Z241a, (6aR)-8-acryloyl-4-chloro-3-(2-fluoro-6-hydroxyphenyl)-1-(3-methoxy-2,2-dimethylpyrrolidin-1-yl)-6,6a,7,8,9,10-hexahydro-12H-pyrazino[2,1-c]pyrido[3,4-f][1,4]oxazepin-12-one]	2.4	4940	1.1
C=CC(=O)N1CCN2C(=O)c3c(N4CCN(CCOC)C[C@@H]4C)nc(-c4c(O)cccc4F)c(Cl)c3OC[C@H]2C1 [Z257a, (6aR)-8-acryloyl-4-chloro-3-(2-fluoro-6-hydroxyphenyl)-1-((S)-4-(2-methoxyethyl)-2-methylpiperazin-1-yl)-6,6a,7,8,9,10-hexahydro-12H-pyrazino[2,1-c]pyrido[3,4-f][1,4]oxazepin-12-one]	9	28200	4
C=CC(=O)N1CCN2C(=O)c3c(N4C[C@H](OC)C[C@@H]4C)nc(-c4c(O)cccc4F)c(Cl)c3OC[C@H]2C1 [Z259a, (6aR)-8-acryloyl-4-chloro-3-(2-fluoro-6-hydroxyphenyl)-1-((2S,4R)-4-methoxy-2-methylpyrrolidin-1-yl)-6,6a,7,8,9,10-hexahydro-12H-pyrazino[2,1-c]pyrido[3,4-f][1,4]oxazepin-12-one]	4.4	9120	3
C=CC(=O)N1CCN2C(=O)c3c(N4CC(C#N)CC4(C)C)nc(-c4c(O)cccc4F)c(Cl)c3OC[C@H]2C1 (stereo partly drawn) [Z275, (6aR)-8-acryloyl-1-(4-cyano-2,2-dimethylpyrrolidin-1-yl)-4-chloro-3-(2-fluoro-6-hydroxyphenyl)-6,6a,7,8,9,10-hexahydro-12H-pyrazino[2,1-c]pyrido[3,4-f][1,4]oxazepin-12-one]	5	7330	2.1
C=CC(=O)N1CCN2C(=O)c3c(N4CC(C)(C)OC[C@@H]4C)nc(-c4c(O)cccc4F)c(Cl)c3OC[C@H]2C1 [Z276-1, (6aR)-8-acryloyl-4-chloro-3-(2-fluoro-6-hydroxyphenyl)-1-((S)-2,2,5-trimethylmorpholino)-6,6a,7,8,9,10-hexahydro-12H-pyrazino[2,1-c]pyrido[3,4-f][1,4]oxazepin-12-one]	14.9	> 30000	7.6
C=CC(=O)N1CCN2C(=O)c3c(N4CCC[C@@]4(C)CO)nc(-c4c(O)cccc4F)c(Cl)c3OC[C@H]2C1 [Z279-2]	4.9	> 30000	3.8
